The target of the test is T1, Paenibacillus lentus alkaline phosphatase AP1 (designated "Native"), serine (S) replacement for an aspartic acid (D), SEQ ID NO: 4 (Paenibacillus lentus, UniProt A0A3Q8S6G4, D102S).
T1 sequence (A0A3Q8S6G4 34-572 D102S): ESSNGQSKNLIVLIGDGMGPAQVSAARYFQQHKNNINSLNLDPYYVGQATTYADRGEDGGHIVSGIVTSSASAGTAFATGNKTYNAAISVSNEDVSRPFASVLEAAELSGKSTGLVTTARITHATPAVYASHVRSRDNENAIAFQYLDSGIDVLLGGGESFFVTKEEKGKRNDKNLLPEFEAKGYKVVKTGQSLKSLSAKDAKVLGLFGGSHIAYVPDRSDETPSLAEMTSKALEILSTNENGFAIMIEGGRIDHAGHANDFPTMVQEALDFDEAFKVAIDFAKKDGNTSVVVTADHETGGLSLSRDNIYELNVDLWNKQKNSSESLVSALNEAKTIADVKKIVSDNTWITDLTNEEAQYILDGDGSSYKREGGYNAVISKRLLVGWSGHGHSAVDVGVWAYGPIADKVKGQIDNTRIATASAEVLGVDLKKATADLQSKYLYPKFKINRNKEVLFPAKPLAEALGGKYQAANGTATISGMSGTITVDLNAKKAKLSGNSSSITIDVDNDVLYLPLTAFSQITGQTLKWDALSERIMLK
In words: Phosphatase kinetics with p-NPP, AP1 ("Native"). In kind it is biochemical. The protocol:
FIG. 7 presents effect of pH on (A)Vmax (IU/mg) and (B) KM (μM) activity of AP1 (designated “Native”) and APHT (designated “HT”). Assays were performed at 40° C. with p-NPP as substrate in the concentration range 0-5 mM. The enzyme concentration was 2.5 μg/mL for the pH 8 and 0.4 mg/mL for pH 9-13).
FIG. 8 presents effect of pH on (A)Vmax (IU/mg) and (B) KM (μM) activity of AP1 (designated “Native”) and APHT (designated “HT”). Assays were performed at 50° C. with p-NPP as substrate in the concentration range 0-5 mM. The enzyme concentration was 2.5 μg/mL for the pH 8 and 0.4 mg/mL for pH 9-13).
Enzymes, including lysozyme and alkaline phosphatase, are recognized as disruptors of bacterial debris and inflammation. These enzymes reduce inflammation, including by lysing the peptidoglycans and LPS of bacteria, thus deactivating them and thereby bypassing the inflammatory response. An alkaline phosphatase was initially identified and modified from Paenibacillus lentus bacteria and expressed for application and use as a farm animal feed additive. This modified alkaline phosphatase is characterized by having a serine (S) replacement for an aspartic acid (D) in the native bacterial alkaline phosphatase protein sequence and is designated herein as AP1. […] The AP1 alkaline phosphate is described including in U.S. Pat. No. 9,326,535 issued May 3, 2016. The sequence of AP1 is as follows (the serine is in bold and underlined) (SEQ ID NO:4):
• 1 M DEA Buffer pH 10. Dissolve 10.5 g of diethanolamine in to 100 ml of water. The pH adjust with 1 M hydrochloric acid or 1 M NaOH. Filter sterilize and store at 4 C. • 0.5 M Tris Base Buffer pH 10 and 8. Dissolve 6.06 g of Tris in to 100 ml of water. The pH adjust with 1 M hydrochloric acid or 1 M NaOH. Filter sterilize and store at 4 C. • 0.1 M Borate Buffer pH 11 and 12. Dissolve 0.62 g Boric acid, 0.44 g NaCl and Sodium tetraborate 0.95 g in 100 ml H2O. The pH adjust with 1 M hydrochloric acid or 1 M NaOH. Filter sterilize and store at 4 C. • 1 M KCl/NaOH Buffer pH 13. Dissolve 7.4 g KCl in 100 ml water. The pH adjust with 1 M NaOH. Filter sterilize and store at 4 C. • 1 M MgCl2, 23.8 g MgCl2 anhydrous in […] water. Filter sterilize and store at 4 C 3. Activity Assay: p-NPP Substrate
Reactions were carried out at 40° C. using 50 mM Tris buffer pH 7 with 50 mM MgCl2 and at 50° C. using 50 mM DEA buffer pH 10 with 50 mM MgCl2. Enzyme was thawed, aliquoted in 500 μL vials and freeze at −80° C. For 100 μL volume of reaction, components were mixed in 96-well microplate (Fisher 12565501) following the order in TABLE 1. Every reaction condition was done by triplicated at least.
After the adding enzyme, the absorption of product was followed at 405 nm over 5 min in a M5 plate reader with intervals of 20 s. Initial rate was determined for each curve and product formed calculated using the extinction coefficient of 18.5 mM^−1·cm^−1 and a calculated pathlength of 0.5 cm. Initial rates where fitted to Michalis Menten model built in the Kaleidagraph software.
pH effect on enzyme activity was tested at 40 and 50° C. in the corresponding buffer with 50 mM MgCl2 using p-NPP as substrate in the concentration range 0-5.0 mM. The reaction started with the addition of enzyme (2.5 μg/mL for pH 8 and 0.4 μg/mL for pH 9-13) and the absorption at 405 nm was followed for 5 min. Every reaction condition was done by triplicated at least. The initial rates where fitted to Michalis Menten model built in the software Kaleidagraph.

In patent publication US20250011738A1, “HEAT TOLERANT ALKALINE PHOSPHATASE” (BiomEdit, LLC, priority 2021, published 2025) one finds Km data, which are given here for one compound.

Broadly, the Km is the concentration of substrate that gives half-maximal velocity.

The structures appear in SMILES notation.

In the case of `O=[N+]([O-])c1ccc(OP(=O)(O)O)cc1` [p-NPP, p-nitrophenylphosphate], the Km turned out to be 3340 µM (40° C., Borate pH 11); 776 µM (40° C., DEA pH 10); 65 µM (40° C., Tris pH 8); 315 µM (40° C., Tris pH 9); 573 µM (50° C., Borate pH 11); 293 µM (50° C., Borate pH 12). Besides, the Michaelis-Menten constant (Km) reads like this: (50° C., KCl/NaOH (pH printed 204; Table 2: 13.0)) 64 µM; (50° C., Tris pH 8) 383 µM; (50° C., Tris pH 9) 1440 µM.
